Assay results reported in paper PMC10510246, “Inhibitory effect of O-propargyllawsone in A549 lung adenocarcinoma cells” (BMC Complementary Medicine and Therapies, 2023).
Where a name gives a salt, the structure may show the parent alone. Read-outs that look alike come from different tables or passages of the source. One block for each compound: values may come before it.

Columns and labels:
[1] = test system: C6 cells; assay: Giemsa staining, morphological changes, C6; assay type: cell-based; conditions: 24 h
Method: (§1) A549, B16-F10 and C6 cells were seeded on coverslips in 24-well plates at a density of 2 × 10^4 cells/well. After 24 h, cells were treated with the compound 1 derivative using 1.1, 2.2 and 4.4 μM for A549 and C6, and 0.75, 1.5 and 3 µM for B16-F10 for 24 h. After treatment, cells were washed twice with phosphate-buffered saline (PBS) and fixed with methyl alcohol for 3 min. Then cells were stained with Giemsa for 1 min. The slides were evaluated under an optical microscope (Olympus) and the images were captured at 400 × magnification.

[2] = test system: human erythrocytes; assay: Hemolytic assay; assay type: cell-based
Method: (§2) The hemolytic activity of the compound 1 was tested using human erythrocytes from healthy volunteers. […] Triton X 100 (0.1%) and Dimethyl sulfoxide (0.1%) were used as positive and negative hemolysis controls, respectively. Erythrocytes were kept under agitation at a temperature of 37 °C for 1 h. After this time, the plate was centrifuged at 405 × g for 5 min and 0.15 mL of the transferred supernatant was read in a spectrophotometer (Biotek—H1 Synergy) with an absorbance of 540 nm.

[3] = Hemolytic assay; assay type: cell-based, human; conditions: human erythrocytes (2% suspension); human erythrocytes, 110 µM, 1 h; read-out: hemolysis percentage
Method: as §2

[4] = test system: A549 cells; assay: Clonogenic assay; assay type: cell-based; conditions: Homo sapiens, 72 h treatment, read-out: inhibition of colony formation
Method: A549 cells were seeded in a 6-well plate at a density of 150 cells/well and incubated in an incubator with 5% CO2 atmosphere at 37 °C. After 24 h, cells were treated with the compound 1 at concentrations of 1.1, 2.2 and 4.4 µM for 72 h. Dimethyl sulfoxide 0.02% and Doxorubicin 0.2 μM were used as negative control and positive control respectively. The treatment was removed and replaced with a supplemented DMEM medium. The cells were incubated in an atmosphere of 5% CO2 at 37 °C. After 6 days, cells were fixed with methanol + acetic acid (3:1) for 5 min and stained with 0.5% crystal violet in water for 30 min. The plates were photographed, and the images were analyzed using ImageJ 1.46 software.

[5] = test system: B16-F10 cells; assay: Giemsa staining, morphological changes, B16-F10; assay type: cell-based; conditions: 24 h
Method: as §1

[6] = test system: A549 cells; assay: Wound-healing assay (cell migration); assay type: cell-based; conditions: for wound closure: A549, 4.4 µM
Method: A549 cells were seeded in a 12-well plate at a density of 4 × 10^5 cells/well and incubated in an incubator with 5% CO2 atmosphere at 37 °C for 24 h. After the incubation period, a straight-line wound was made with the aid of a p200 tip, the supernatant was discarded, and the wells were washed twice with 1 × PBS to remove loose cells. Cells were treated with compound 1 at concentrations of 1.1, 2.2 and 4.4 µM. 0.02% Dimethyl sulfoxide and 0.2 μM Doxorubicin were used as a negative control and positive control, respectively. Images of wound closure were acquired at 0, 24 and 48 h of treatment with an Olympus microscope. The images were analyzed using the ImageJ software version 1.46.

[7] = test system: melanoma (B16-F10) cells; assay: Sulforhodamine B (SRB) cell growth inhibition assay, B16-F10; assay type: cell-based; conditions: for IC50: B16-F10, SRB, 72 h, value (95% confidence interval), read-out: IC50 (maximum 50% inhibitory concentration of cell growth)
Method: (§3) The cell lines of lung adenocarcinoma (A549), melanoma (B16-F10) and glioma (C6) were purchased from the Federal University of Rio de Janeiro. Cells were maintained in cell culture flasks in Dulbeccos's Modified Eagle Medium (DMEM) supplemented with 10% Fetal Bovine Serum (FBS) and 1% antibiotic (10,000 U/mL penicillin; […] streptomycin) and incubated at 37 °C in an atmosphere of 5% CO2. After reaching the necessary confluence for carrying out the experiments, the medium was removed, and the cells detached from the bottle using a 0.25% Trypsin–EDTA solution for a period of 1 to 15 min. After this step, the Trypsin–EDTA solution was inactivated with culture medium and the cells were centrifuged, with rotation of 153 G for 10 min at 4 °C. The pellet formed was resuspended in culture medium and the cells were counted in a Neubauer chamber to carry out the experiments.
(§4) For this experiment, A549, B16-F10 and C6 cells were seeded in 96-well plates at a density of 1 × 10^4 cells/well. After an incubation period of 24 h in a humidified incubator at 37 °C with 5% CO2 atmosphere for adhesion, the cells were treated with lawsone and lawsone derivatives (compounds 1, 2 and 3) for 72 h with concentrations from 25 µM to 0.8 µM. Cells were fixed with 100 μL of 30% trichloroacetic acid for 1 h in a refrigerator at 4 °C. Then, the plate was washed 4 times with water and set to dry. After the drying period, 100 μL of 0.057% Sulforhodamine B (SRB) solution (w/v) dissolved in 1% acetic acid was added for 30 min at room temperature. Then the plate was washed 4 times with 1% acetic acid to remove excess dye. After drying, 200 μL of TRIS 10 mM pH 10.5 was added to dilute the SRB for 30 min. The reading was made in a spectrophotometer (Biotek—H1 Synergy) with a wavelength of 510 nm.
(§5) Based on the inhibitory degree of the derivatives, the IC50 of the compounds were calculated. The IC50 is the concentration capable of inhibiting 50% of cell growth. The compound that presented the lowest IC50 was compound 1, being selected for evaluation in the following experiments. For this, IC50 values were used as a basis to define concentrations of half of the IC50, the IC50 value and twice the IC50.

[8] = test system: lung adenocarcinoma (A549) cells; assay: Sulforhodamine B (SRB) cell growth inhibition assay, A549; assay type: cell-based; conditions: for IC50: A549, SRB, 72 h, value (95% confidence interval), read-out: IC50 (maximum 50% inhibitory concentration of cell growth)
Method: as §3, §4, §5

[9] = test system: glioma (C6) cells; assay: Sulforhodamine B (SRB) cell growth inhibition assay, C6; assay type: cell-based; conditions: for IC50: C6, SRB, 72 h, value (95% confidence interval), read-out: IC50 (maximum 50% inhibitory concentration of cell growth)
Method: as §3, §4, §5

[10] = test system: A549 cells; assay: Giemsa staining, morphological changes, A549; assay type: cell-based; conditions: A549, 2.2 and 4.4 μM, 24 h
Method: as §1

[11] = test system: A549 cells; assay: Annexin V-FITC/PI assay (flow cytometry); assay type: cell-based; conditions: 24 h
Method: A549 cells were seeded in 12-well plates in DMEM medium supplemented with FBS and 1% antibiotic (10,000 U/ml penicillin; […] streptomycin) with a density equal to 2 × 10^5 cells/well and incubated for 24 h. Then, the cells were treated with the compound 1 at concentrations of 1.1, 2.2 and 4.4 µM, for 24 h. Dimethyl sulfoxide 0.02% was used as negative control and 0.2 μM Doxorubicin were used as positive control. After treatment, cells were detached with Accutase solution, transferred to tubes, and washed with PBS. After washing the cells were stained with Annexin V-FITC/PI according to the manufacturer. Samples were analyzed by flow cytometry (Attune NxT Acoustic Focusing Cytometer, Thermo Fisher Scientific). Cells without labeling were considered viable, cells positive only for Annexin V/FITC were considered cells in apoptosis, cells with double labeling for Annexin V/FITC and propidium iodide were considered cells in late apoptosis and cells positive only for iodide propidium were considered cells in necrosis.

SMILES: O=C1C=C(OCc2cn(-c3ccc(Cl)cc3)nn2)C(=O)c2ccccc21 [Compound 3]
growth inhibition category ([7]; B16-F10, 72 h, all concentrations tested (25 µM to 0.8 µM)): low (low when below 50%) | growth inhibition category ([8]; A549, 72 h, all concentrations tested (25 µM to 0.8 µM)): low (low when below 50%) | growth inhibition category ([9]; C6, 72 h, all concentrations tested (25 µM to 0.8 µM)): low (low when below 50%)

SMILES: COc1cccc2c1C(=O)c1c(O)c3c(c(O)c1C2=O)C[C@@](O)(C(=O)CO)C[C@@H]3O[C@H]1C[C@H](N)[C@H](O)[C@H](C)O1 [Doxorubicin, Doxorubicin Hydrochloride, reference compound]
inhibition at 0.2 µM ([4]; A549, 0.2 μM (positive control)): 96.1% | wound closure (wound restored) ([6]; A549, 0.2 μM (positive control), 48 h): 78% | IC50 ([7]; listed as Doxorrubicin): 0.6 µM | IC50 ([7]; Mus musculus, B16-F10, 72 h): < 0.6 µM | IC50 [8]: < 0.6 µM | changes in the percentage of living, apoptotic or necrotic cells ([11]; A549, 0.2 µM): not possible to observe changes

SMILES: O=C1C=C(O)C(=O)c2ccccc21 [Lawsone, 2-hydroxy-1,4-naphtoquinone]
IC50 ([8]; Homo sapiens, A549, 72 h): 53 µM | IC50 ([9]; Rattus norvegicus, C6, 72 h): 22.6 µM

Continued, in another order:

IC50 [7]: 1.5 µM | IC50 ([7]; Mus musculus, B16-F10, 72 h): < 2.2 µM | IC50 [8]: 2.2 µM | IC50 ([8]; Homo sapiens, A549, 72 h): < 2.5 µM | IC50 [9]: 2.2 µM | IC50 ([9]; Rattus norvegicus, C6, 72 h): < 2.2 µM
SMILES: C#CCOC1=CC(=O)c2ccccc2C1=O [Compound 1, O-propargyllawsone]
morphological changes (Giemsa) ([1]; C6, 1.1 µM): reduced cytoplasmic volume and the appearance of apoptotic cells | morphological changes (Giemsa) ([1]; C6, 2.2 and 4.4 μM): reduction in cytoplasm and apoptotic cells | toxicity to erythrocytes ([2]; highest concentration tested of 110 µM): not toxic to erythrocytes | hemolytic effect ([2]; human erythrocytes, 13.75, 27.5 and 55 µM, 1 h): no hemolytic effect | hemolysis at 1 h, 110 µM [3]: < 0.5% | inhibition at 1.1 µM ([4]; A549, 1.1 µM, compared to the negative control): 31.1% | inhibition at 2.2 µM ([4]; A549, 2.2 µM, compared to the negative control): 82.1% | inhibition at 4.4 µM ([4]; A549, 4.4 µM, compared to the negative control): 98.1% | morphological changes (Giemsa) ([5]; B16-F10, 0.75 µM): reduced cytoplasmic volume and the appearance of apoptotic cells | morphological changes (Giemsa) ([5]; B16-F10, 1.5 and 3 µM): reduction in cytoplasm and apoptotic cells | effect on cell migration ([6]; A549, 1.1 µM, 24 or 48 h): no significant reduction of migration | reduction of wound closure ([6]; A549, 2.2 µM, 48 h): 33% | wound closure ([6]; 24 h): 18% | wound closure ([6]; 48 h): 56% | growth inhibition category ([7]; B16-F10, 72 h, concentrations from 25 to 6.3 µM): high (high inhibition when above 75%) | growth inhibition category ([8]; A549, 72 h, concentrations from 25 to 6.3 µM): high (high inhibition when above 75%) | inhibitory potential relative to lawsone ([8]; compared with lawsone IC50, cell line not specified): at least 10 times | growth inhibition category ([9]; C6, 72 h, concentrations from 25 to 6.3 µM): high (high inhibition when above 75%) | morphological changes (Giemsa) [10]: reduction in cytoplasm and apoptotic cells | changes in the percentage of living, apoptotic or necrotic cells ([11]; A549, 1.1 µM and 2.2 µM): not able to induce significant changes | cells undergoing apoptosis ([11]; A549, 4.4 µM): 47.8% | cells undergoing necrosis ([11]; A549, 4.4 µM): 39.7% | percentage of living cells ([11]; A549, 4.4 µM): 12.4%

IC50 [7]: 14.2 µM | IC50 ([7]; Mus musculus, B16-F10, 72 h): > 14 µM | IC50 [8]: 14.9 µM | IC50 ([8]; Homo sapiens, A549, 72 h): > 14 µM | IC50 ([9]; listed as compound 2): > 14 µM | IC50 [9]: 43.4 µM
SMILES: O=C1C=C(OCc2cn(-c3ccccc3)nn2)C(=O)c2ccccc21 [Compound 2]
growth inhibition category ([7]; B16-F10, 72 h, concentrations 12.5 to 0.8 µM): low (low when below 50%) | inhibition at 25 µM ([7]; Mus musculus, B16-F10, 72 h, 25 µM, read-out: growth inhibition category): 50 to 75% | growth inhibition category ([8]; A549, 72 h, concentrations 12.5 to 0.8 µM): low (low when below 50%) | inhibition at 25 µM ([8]; Homo sapiens, A549, 72 h, 25 µM, read-out: growth inhibition category): 50 to 75% | growth inhibition category ([9]; C6, 72 h, concentrations 12.5 to 0.8 µM): low (low when below 50%)
